The structures appear in SMILES notation. Values joined by “and” are separate entries in the source; they are usually repeats but may differ in a detail not shown here. Equal entries are not always repeated. Active and inactive are the calls of the source.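 How the source made its calls: active means EC50 of 10 µM or lower; inactive means the rest.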 Where only a bound is given, the exact number is not on record here.

The assay deals with H9c2 cardiomyocytes, 2-deoxyglucose injury, ATP luminescence, 2 h. Put plainly: cardioprotective modulators, 2-DG ATP loss – H9c2 cells, ATP luminescence, set 2, SAR follow-up (AID 624454).
As for `COc1ccc2c(c1OC)C(=O)N1c3ccccc3C(=O)N(c3ccc(C(C)(C)C)cc3)C21` (configuration not stated), the EC50 (protection from 2-deoxyglucose ATP loss, increase) is > 79 µM (inactive).

As to `COc1cccc(CNC(=O)c2cc(-c3cc(OC)c(OC)c(OC)c3)nc3ccccc23)c1`, the EC50 (protection from 2-deoxyglucose ATP loss, increase) is 27.4 µM (inactive).

For the compound `COc1cc(-c2cc(C(=O)Nc3ccc(C(C)=O)cc3)c3ccccc3n2)cc(OC)c1OC`, the EC50 (protection from 2-deoxyglucose ATP loss, increase) was > 79 µM (inactive).

Take `COc1ccc2c(c1OC)C(=O)N1c3ccccc3C(=O)N(c3ccc(Br)cc3)C21` (configuration not stated): the EC50 (protection from 2-deoxyglucose ATP loss, increase) is 11.3 µM (inactive).

As for `COc1ccc(N2C(=O)c3ccccc3N3C(=O)c4c(ccc(OC)c4OC)C23)cc1` (configuration not stated), the EC50 (protection from 2-deoxyglucose ATP loss, increase) is 58.4 µM (inactive).

Turning to `O=C1c2ccccc2N2C(=O)c3ccccc3C2N1c1ccccc1` (configuration not stated), the EC50 (protection from 2-deoxyglucose ATP loss, increase) was > 79 µM (inactive).

Turning to `COc1cccc(-c2cc(C(=O)Nc3cccc(C(C)=O)c3)c3ccccc3n2)c1`, the EC50 (protection from 2-deoxyglucose ATP loss, increase) is 37.3 µM (inactive).

As to `COc1cccc(CNC(=O)c2cc(-c3ccc(OC)c(OC)c3)nc3ccccc23)c1`, the EC50 (protection from 2-deoxyglucose ATP loss, increase) was 18.5 µM (inactive).

Turning to `COc1cc(-c2cc(C(=O)Nc3cccc(C(C)=O)c3)c3cc(Cl)ccc3n2)cc(OC)c1OC`, the EC50 (protection from 2-deoxyglucose ATP loss, increase) is > 79 µM (inactive).

For the compound `CCN(CC(=O)Nc1ccccc1)C(=O)c1cc(-c2cccs2)nn1-c1ccccc1`, the EC50 (protection from 2-deoxyglucose ATP loss, increase) is > 79 µM (inactive).

For `COc1ccc2c(c1OC)C(=O)N1c3ccccc3C(=O)N(Cc3ccccc3Cl)C21` (configuration not stated), the EC50 (protection from 2-deoxyglucose ATP loss, increase) is 12.8 µM (inactive).

As to `COc1cc(-c2cc(C(=O)Nc3cccc(C)c3)c3ccccc3n2)cc(OC)c1OC`, the EC50 (protection from 2-deoxyglucose ATP loss, increase) was > 79 µM (inactive).

For `COc1cc(-c2cc(C(=O)Nc3cccc(C(F)(F)F)c3)c3ccccc3n2)cc(OC)c1OC`, the EC50 (protection from 2-deoxyglucose ATP loss, increase) is > 79 µM (inactive).

With `COc1ccc2c(c1OC)C(=O)N1c3ccccc3C(=O)N(c3cccc(C)c3)C21` (configuration not stated), the EC50 (protection from 2-deoxyglucose ATP loss, increase) was 53.3 µM (inactive).

Regarding `COc1ccc2c(c1OC)C(=O)N1c3ccccc3C(=O)N(c3ccc(C)cc3)C21` (configuration not stated), the EC50 (protection from 2-deoxyglucose ATP loss, increase) was 29.1 µM (inactive).

For the compound `COc1ccc2c(c1OC)C(=O)N1c3ccccc3C(=O)N(c3cccc(F)c3)C21` (configuration not stated), the EC50 (protection from 2-deoxyglucose ATP loss, increase) was 41.1 µM (inactive).

`COc1cccc(NC(=O)c2cc(-c3cc(OC)c(OC)c(OC)c3)nc3ccccc23)c1`: the EC50 (protection from 2-deoxyglucose ATP loss, increase) was > 79 µM (inactive).

Consider `CCN(CC(=O)Nc1ccc(OC)cc1)C(=O)c1cc(-c2cc(OC)c(OC)c(OC)c2)nc2ccccc12`, for which the EC50 (protection from 2-deoxyglucose ATP loss, increase) is 29.8 µM (inactive).

Regarding `COc1cc(-c2cc(C(=O)Nc3cccc(F)c3)c3ccccc3n2)cc(OC)c1OC`, the EC50 (protection from 2-deoxyglucose ATP loss, increase) is > 79 µM (inactive).

In the case of `CCN(CC(=O)Nc1ccc(OC)cc1)C(=O)c1cc(-c2cccs2)nn1-c1ccccc1`, the EC50 (protection from 2-deoxyglucose ATP loss, increase) was 16.1 µM (inactive) and 20.5 µM (inactive).

For the compound `COc1ccc2c(c1OC)C(=O)N1c3ccccc3C(=O)N(c3cccc(C(F)(F)F)c3)C21` (configuration not stated), the EC50 (protection from 2-deoxyglucose ATP loss, increase) is > 79 µM (inactive).

For `COc1ccc2c(c1OC)C(=O)N1c3ccccc3C(=O)N(c3cccc(Cl)c3)C21` (configuration not stated), the EC50 (protection from 2-deoxyglucose ATP loss, increase) is 45 µM (inactive).

Turning to `CCOC(=O)c1cccc(NC(=O)c2cc(-c3cc(OC)c(OC)c(OC)c3)nc3ccccc23)c1`, the EC50 (protection from 2-deoxyglucose ATP loss, increase) was > 79 µM (inactive).

On to `COc1ccc2c(c1OC)C(=O)N1c3ccccc3C(=O)N(c3ccccc3)C21` (configuration not stated), for which the EC50 (protection from 2-deoxyglucose ATP loss, increase) is 31.9 µM (inactive).

For the compound `COc1cccc(N2C(=O)c3ccccc3N3C(=O)c4c(ccc(OC)c4OC)C23)c1` (configuration not stated), the EC50 (protection from 2-deoxyglucose ATP loss, increase) was 78 µM (inactive).

Consider `COc1ccc2c(c1OC)C(=O)N1c3ccccc3C(=O)N(c3cccc(Br)c3)C21` (configuration not stated), for which the EC50 (protection from 2-deoxyglucose ATP loss, increase) is 28.4 µM (inactive) and > 79 µM (inactive).

On to `CC(=O)c1cccc(NC(=O)c2cc(-c3ccccc3)nc3ccccc23)c1`, for which the EC50 (protection from 2-deoxyglucose ATP loss, increase) is 33.5 µM (inactive).

Take `COc1cccc(N2C(=O)c3ccccc3N3C(=O)c4ccccc4C23)c1` (configuration not stated): the EC50 (protection from 2-deoxyglucose ATP loss, increase) is > 79 µM (inactive).

As to `O=C1c2ccccc2N2C(=O)c3ccccc3C2N1c1cccc(Br)c1` (configuration not stated), the EC50 (protection from 2-deoxyglucose ATP loss, increase) was > 79 µM (inactive).

For the compound `COc1ccc(-c2cc(C(=O)Nc3cccc(C(C)=O)c3)c3ccccc3n2)cc1`, the EC50 (protection from 2-deoxyglucose ATP loss, increase) was > 79 µM (inactive).

In the case of `CCN(CC(=O)Nc1ccc(F)cc1)C(=O)c1cc(-c2cccs2)nn1-c1ccccc1`, the EC50 (protection from 2-deoxyglucose ATP loss, increase) was 36.1 µM (inactive).

Regarding `COc1ccc2c(c1OC)C(=O)N1c3ccccc3C(=O)N(Cc3cccc(Cl)c3)C21` (configuration not stated), the EC50 (protection from 2-deoxyglucose ATP loss, increase) was 37.9 µM (inactive).

Turning to `COc1ccc(-c2cc(C(=O)Nc3cccc(C(C)=O)c3)c3ccccc3n2)cc1OC`, the EC50 (protection from 2-deoxyglucose ATP loss, increase) was 42.8 µM (inactive).

As to `COc1cc(-c2cc(C(=O)Nc3cccc(C(C)=O)c3)c3ccccc3n2)cc(OC)c1OC`, the EC50 (protection from 2-deoxyglucose ATP loss, increase) is 13.7 µM (inactive) and 14.8 µM (inactive).

Take `COc1ccc(NC(=O)c2cc(-c3cc(OC)c(OC)c(OC)c3)nc3ccccc23)cc1`: the EC50 (protection from 2-deoxyglucose ATP loss, increase) is > 79 µM (inactive).

Turning to `COc1cc(-c2cc(C(=O)Nc3cccc(Cl)c3)c3ccccc3n2)cc(OC)c1OC`, the EC50 (protection from 2-deoxyglucose ATP loss, increase) is > 79 µM (inactive).

On to `COc1cc(-c2cc(C(=O)Nc3ccccc3)c3ccccc3n2)cc(OC)c1OC`, for which the EC50 (protection from 2-deoxyglucose ATP loss, increase) was > 79 µM (inactive).

The record behind these values is PubChem BioAssay AID624454 (Sanford-Burnham Center for Chemical Genomics, 2012).
